The text below walks through data of patent US11845752B2, “Substituted imidazo[1,5-a]pyrazines for the treatment of hepatitis B” (ALIGOS THERAPEUTICS, INC., priority 2020, dated 2023).

This test relates to HBV. As to the kind of experiment: HBV-DNA antiviral assay using HepG2.117 cells (intracellular HBV DNA by qPCR). Type of test: cell-based, HBV genotype D. To be noted: HBV DNA inhibition, 3 days incubation, read-out: EC50. In a few lines: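 Read-outs: cell-lysate HBV DNA copies by qPCR (interpolated from gBlock standard) and parallel cellular ATP luminescence for CC50, both normalised to 2% DMSO controls and fitted by non-linear regression. HepG2.117 Tet-off genotype D HBV cells, induced by doxycycline removal, exposed 3 days to 4-fold serial dilutions.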
A general note: Quantitative PCR measures a nucleic acid by following its amplification.

The mark [1] stands for this setting: Hepatitis B virus, HepG2.117, 72 h.

For orientation: EC50 means the concentration at which the effect is half-maximal.

Read-outs that look alike come from different tables or passages of the source.

Regarding `CC1Cn2c(c(C(=O)NCc3ccccc3-c3ccncn3)n(-c3ccc(N4CCC5(CC4)CN(C)C5)cc3)c2=O)CN1C(=O)c1ccc(Br)c(C(F)(F)F)c1` (single isomer, unassigned) [Compound 80b], the EC50 was in the range of 50 to 500 nM.
In the case of `CC1Cn2c(c(C(=O)NCc3ccccc3-c3ncccn3)n(-c3ccc(OCC4(O)CC4)cc3)c2=O)CN1C(=O)c1ccc(Br)c(C(F)(F)F)c1` (single isomer, unassigned) [Compound 81a], under setting [1], the EC50 lay within 50 to 500 nM.
As to `CC1Cn2c(c(C(=O)NCc3ccccc3-c3ncccn3)n(-c3ccc(OCC4(O)CC4)cc3)c2=O)CN1C(=O)c1ccc(Br)c(C(F)(F)F)c1` (single isomer, unassigned) [Compound 81b], the EC50 is below 50 nM.
For `CC1Cn2c(c(C(=O)NCc3ccccc3-c3ccncn3)n(-c3ccc(N4CC5(CCN5C)C4)cc3)c2=O)CN1C(=O)c1ccc(Br)c(C(F)(F)F)c1` (single isomer, unassigned) [Compound 84a], under setting [1], the EC50 was 50 to 500 nM.
In the case of `CC1Cn2c(c(C(=O)NCc3ccccc3-c3ccncn3)n(-c3ccc(N4CC5(CCN5C)C4)cc3)c2=O)CN1C(=O)c1ccc(Br)c(C(F)(F)F)c1` (single isomer, unassigned) [Compound 84b], the EC50 is below 50 nM.
As to `CC1Cn2c(c(C(=O)NCc3ccccc3-c3ccncn3)n(-c3ccc(N4CCC5(CN(C)C5)C4)cc3)c2=O)CN1C(=O)c1ccc(Br)c(C(F)(F)F)c1` (single isomer, unassigned) [Compound 88a], under setting [1], the concentration for a half-maximal effect (EC50) was below 50 nM.
As to `CC1Cn2c(c(C(=O)NCc3ccccc3-c3ccncn3)n(-c3ccc(N4CCC5(CN(C)C5)C4)cc3)c2=O)CN1C(=O)c1ccc(Br)c(C(F)(F)F)c1` (single isomer, unassigned) [Compound 88b], the EC50 was 50 to 500 nM.
For the compound `CC1Cn2c(c(C(=O)NCc3ccccc3-c3ccncn3)n(-c3ccc4oc(N)nc4c3)c2=O)CN1C(=O)c1ccc(Br)c(Cl)c1` (single isomer, unassigned) [Compound 92a], under setting [1], the EC50 was in the range of 500 to 5000 nM.
`CC1Cn2c(c(C(=O)NCc3ccccc3-c3ccncn3)n(-c3ccc4oc(N)nc4c3)c2=O)CN1C(=O)c1ccc(Br)c(Cl)c1` (single isomer, unassigned) [Compound 92b]: the EC50 lay in the range of 500 to 5000 nM.
Turning to `CC1Cn2c(c(C(=O)NCc3ccccc3-c3ccncn3)n(-c3ccc4oc(N)nc4c3)c2=O)CN1C(=O)c1ccc(Br)c(C(F)(F)F)c1` (single isomer, unassigned) [Compound 93a, (6R*)-2-(2-amino-1,3-benzoxazol-5-yl)-7-[4-bromo-3-(trifluoromethyl)benzoyl]-6-methyl-3-oxo-N-{[2-(pyrimidin-4-yl)phenyl]methyl}-5H,6H,8H-imidazo[1,5-a]pyrazine-1-carboxamide], the EC50 lay in the range of 500 to 5000 nM.
As for `CC1Cn2c(c(C(=O)NCc3ccccc3-c3ccncn3)n(-c3ccc4oc(N)nc4c3)c2=O)CN1C(=O)c1ccc(Br)c(C(F)(F)F)c1` (single isomer, unassigned) [Compound 93b, (6S*)-2-(2-amino-1,3-benzoxazol-5-yl)-7-[4-bromo-3-(trifluoromethyl)benzoyl]-6-methyl-3-oxo-N-{[2-(pyrimidin-4-yl)phenyl]methyl}-5H,6H,8H-imidazo[1,5-a]pyrazine-1-carboxamide], the EC50 lay in the range of 50 to 500 nM.
Take `CN[C@H](C)COc1ccc(-n2c(C(=O)NCc3ccccc3-c3ncccn3)c3n(c2=O)C[C@@H](C)N(C(=O)c2ccc(Br)c(C(F)(F)F)c2)C3)cc1` (single isomer, unassigned) [Compound 95a]: the EC50 under setting [1] was in the range of 50 to 500 nM.
The same measure, in the same setting: under `C[C@H](COc1ccc(-n2c(C(=O)NCc3ccccc3-c3ncccn3)c3n(c2=O)C[C@@H](C)N(C(=O)c2ccc(Br)c(C(F)(F)F)c2)C3)cc1)N1CCOCC1` (single isomer, unassigned) [Compound 96a] stands below 50 nM.
For the compound `C[C@H](COc1ccc(-n2c(C(=O)NCc3ccccc3-c3ncccn3)c3n(c2=O)C[C@@H](C)N(C(=O)c2ccc(Br)c(C(F)(F)F)c2)C3)cc1)N(C)C` (single isomer, unassigned) [Compound 97a], the EC50 under setting [1] lay in the range of 50 to 500 nM.
Still for that read-out and setting: next, `C[C@H](COc1ccc(-n2c(C(=O)NCc3ccccc3-c3ncccn3)c3n(c2=O)C[C@H](C)N(C(=O)c2ccc(Br)c(C(F)(F)F)c2)C3)cc1)N(C)C` (single isomer, unassigned) [Compound 97b]: below 50 nM.
Turning to `CC1Cn2c(c(C(=O)NCc3ccccc3-c3nccc(C(F)(F)F)n3)n(-c3ccc(N4CC5(CN(C)C5)C4)cc3)c2=O)CN1C(=O)c1ccc(Br)c(C(F)(F)F)c1` (single isomer, unassigned) [Compound 98a], the 50% effective concentration (EC50) lay within 50 to 500 nM.
In the case of `CC1Cn2c(c(C(=O)NCc3ccccc3-c3nccc(C(F)(F)F)n3)n(-c3ccc(N4CC5(CN(C)C5)C4)cc3)c2=O)CN1C(=O)c1ccc(Br)c(C(F)(F)F)c1` (single isomer, unassigned) [Compound 98b], the EC50 was in the range of 500 to 5000 nM.
Take `CC1Cn2c(c(C(=O)NCc3ccccc3-c3ccn(CC(F)(F)F)n3)n(-c3ccc(N4CC5(CN(C)C5)C4)cc3)c2=O)CN1C(=O)c1ccc(Br)c(C(F)(F)F)c1` (single isomer, unassigned) [Compound 99a]: the EC50 under setting [1] lay in the range of 50 to 500 nM.
Consider `CC1Cn2c(c(C(=O)NCc3ccccc3-c3ccn(CC(F)(F)F)n3)n(-c3ccc(N4CC5(CN(C)C5)C4)cc3)c2=O)CN1C(=O)c1ccc(Br)c(C(F)(F)F)c1` (single isomer, unassigned) [Compound 99b], for which the EC50 lay in the range of 50 to 500 nM.
Regarding `CC1Cn2c(c(C(=O)NCc3ccccc3-c3ncccn3)n(-c3ccc4c(cnn4CC(F)(F)F)c3)c2=O)CN1C(=O)c1ccc(Br)c(C(F)(F)F)c1` (single isomer, unassigned) [Compound 100a], the EC50 under setting [1] is below 50 nM.
Turning to `CC1Cn2c(c(C(=O)NCc3ccccc3-c3ncccn3)n(-c3ccc4c(cnn4CC(F)(F)F)c3)c2=O)CN1C(=O)c1ccc(Br)c(C(F)(F)F)c1` (single isomer, unassigned) [Compound 100b], the EC50 is below 50 nM.
On to `CC1Cn2c(c(C(=O)NCc3ccccc3-c3ncccn3)n(-c3ccc4c(cnn4C[C@@H](O)C(F)(F)F)c3)c2=O)CN1C(=O)c1ccc(Br)c(C(F)(F)F)c1` (single isomer, unassigned) [Compound 101a], for which the EC50 under setting [1] was 50 to 500 nM.
Still for that read-out and setting: under `CC1Cn2c(c(C(=O)NCc3ccccc3-c3ncccn3)n(-c3ccc4c(c3)nnn4CC(F)(F)F)c2=O)CN1C(=O)c1ccc(Br)c(C(F)(F)F)c1` (single isomer, unassigned) [Compound 103a] stands 50 to 500 nM.
With `CC1Cn2c(c(C(=O)NCc3ccccc3-c3ncccn3)n(-c3ccc4c(c3)nnn4CC(F)(F)F)c2=O)CN1C(=O)c1ccc(Br)c(C(F)(F)F)c1` (single isomer, unassigned) [Compound 103b], the EC50 is below 50 nM.
As to `CC1Cn2c(c(C(=O)NCc3c(F)cccc3Cl)n(-c3ccc4c(cnn4CC(F)(F)F)c3)c2=O)CN1C(=O)c1ccc(Br)c(C(F)(F)F)c1` (single isomer, unassigned) [Compound 104a], the EC50 under setting [1] is below 50 nM.
In the case of `CC1Cn2c(c(C(=O)NCc3c(F)cccc3Cl)n(-c3ccc4c(cnn4CC(F)(F)F)c3)c2=O)CN1C(=O)c1ccc(Br)c(C(F)(F)F)c1` (single isomer, unassigned) [Compound 104b], the EC50 lay in the range of 50 to 500 nM.
As for `CC1Cn2c(c(C(=O)NCc3ccccc3-c3ncccn3)n(-c3ccc4nn(C[C@@H](O)C(F)(F)F)cc4c3)c2=O)CN1C(=O)c1ccc(Br)c(C(F)(F)F)c1` (single isomer, unassigned) [Compound 105a], the EC50 under setting [1] was below 50 nM.
For `CC1Cn2c(c(C(=O)NCc3c(F)cccc3Cl)n(-c3ccc(N4CC5(CN(C)C5)C4)cc3)c2=O)CN1C(=O)c1ccc(Br)c(C(F)(F)F)c1` (single isomer, unassigned) [Compound 106a], the EC50 under setting [1] lay in the range of 50 to 500 nM.
Consider `CC1Cn2c(c(C(=O)NCc3c(F)cccc3Cl)n(-c3ccc(N4CC5(CN(C)C5)C4)cc3)c2=O)CN1C(=O)c1ccc(Br)c(C(F)(F)F)c1` (single isomer, unassigned) [Compound 106b], for which the EC50 was in the range of 50 to 500 nM.
Take `CC1Cn2c(c(C(=O)NCc3ccccc3-c3ncccn3)n(-c3ccc4oncc4c3)c2=O)CN1C(=O)c1ccc(Br)c(C(F)(F)F)c1` (single isomer, unassigned) [Compound 108a]: the EC50 under setting [1] fell in the range of 500 to 5000 nM.
For the compound `CC1Cn2c(c(C(=O)NCc3ccccc3-c3ncccn3)n(-c3ccc4oncc4c3)c2=O)CN1C(=O)c1ccc(Br)c(C(F)(F)F)c1` (single isomer, unassigned) [Compound 108b], the EC50 fell in the range of 500 to 5000 nM.
With `CC1Cn2c(c(C(=O)NCc3ccccc3-c3ncccn3)n(-c3ccc4c(cnn4C4CNC4)c3)c2=O)CN1C(=O)c1ccc(Br)c(C(F)(F)F)c1` (single isomer, unassigned) [Compound 109a], the EC50 under setting [1] is 500 to 5000 nM.
`CC1Cn2c(c(C(=O)NCc3ccccc3-c3ncccn3)n(-c3ccc4c(cnn4C4CNC4)c3)c2=O)CN1C(=O)c1ccc(Br)c(C(F)(F)F)c1` (single isomer, unassigned) [Compound 109b]: the EC50 lay within 500 to 5000 nM.
With `CC1Cn2c(c(C(=O)NCc3ccccc3-n3ccc(C(F)(F)F)n3)n(-c3ccc(N4CC5(CN(C)C5)C4)cc3)c2=O)CN1C(=O)c1ccc(Br)c(C(F)(F)F)c1` (single isomer, unassigned) [Compound 110a], the EC50 under setting [1] lay within 50 to 500 nM.
As to `CC1Cn2c(c(C(=O)NCc3ccccc3-n3ccc(C(F)(F)F)n3)n(-c3ccc(N4CC5(CN(C)C5)C4)cc3)c2=O)CN1C(=O)c1ccc(Br)c(C(F)(F)F)c1` (single isomer, unassigned) [Compound 110b], the EC50 lay in the range of 50 to 500 nM.
As to `CC1Cn2c(c(C(=O)NCc3ccccc3-c3nnco3)n(-c3ccc(N4CC5(CN(C)C5)C4)cc3)c2=O)CN1C(=O)c1ccc(Br)c(C(F)(F)F)c1` (single isomer, unassigned) [Compound 112a], under setting [1], the EC50 was 500 to 5000 nM.
As to `CC1Cn2c(c(C(=O)NCc3ccccc3-c3nnco3)n(-c3ccc(N4CC5(CN(C)C5)C4)cc3)c2=O)CN1C(=O)c1ccc(Br)c(C(F)(F)F)c1` (single isomer, unassigned) [Compound 112b], the EC50 was 500 to 5000 nM.
